Test: Octanol-water distribution coefficient (logD pH 7.4) of the labeled tracer
Format: physicochemical
Details: n-octanol/PBS pH 7.4, room temperature
Description: Approximately 1 MBq of the labeled tracer was dissolved in 1 mL of a 1:1 mixture (by volumes) of phosphate buffered saline (PBS, pH 7.4) and n-octanol in an Eppendorf tube. After vigorous mixing of the suspension for 3 minutes at room temperature, the vial was centrifuged at 15000 g for 5 minutes (Biofuge 15, Heraus Sepatech, Osterode, Germany) and 100 μL aliquots of both layers were measured in a gamma counter. The experiment was repeated at least six times.

| Structure (SMILES) | LogDpH=7.4 |
| --- | --- |
| C[C@@H](O)[C@H](NC(=O)C1CSSCC(NC(=O)C(Cc2ccccc2)NC(=O)COCCOCCNC(=O)C(CC(=O)O)NC(=O)[C@@H](CC(=O)O)NC(=O)C(CNC(=O)c2ccc([Si](F)(C(C)(C)C)C(C)(C)C)cc2)NC(=O)CCC(C(=O)O)N2CCN(CC(=O)O)CCN(CC(=O)O)CCN(CC(=O)O)CC2)C(=O)N[C@@H](Cc2ccc(O)cc2)C(=O)NC(Cc2c[nH]c3ccccc23)C(=O)N[C@@H](CCCCN)C(=O)N[C@@H]([C@@H](C)O)C(=O)N1)C(=O)O (stereo partly drawn) (natGa complex, metal not drawn) [[Ga]1] | −2.02 ± 0.04 |
| C[C@@H](O)[C@H](NC(=O)C1CSSCC(NC(=O)C(Cc2ccccc2)NC(=O)COCCOCCNC(=O)C(CC(=O)O)NC(=O)[C@@H](CC(=O)O)NC(=O)C(CNC(=O)CCC(C(=O)O)N2CCN(CC(=O)O)CCN(CC(=O)O)CCN(CC(=O)O)CC2)NC(=O)c2ccc([Si](F)(C(C)(C)C)C(C)(C)C)cc2)C(=O)N[C@@H](Cc2ccc(O)cc2)C(=O)NC(Cc2c[nH]c3ccccc23)C(=O)N[C@@H](CCCCN)C(=O)N[C@@H]([C@@H](C)O)C(=O)N1)C(=O)O (stereo partly drawn) (natGa complex, metal not drawn) [[Ga]2] | −2.3 ± 0.09 |
| C[C@@H](O)[C@H](NC(=O)C1CSSCC(NC(=O)C(Cc2ccccc2)NC(=O)COCCOCCNC(=O)C(CC(=O)O)NC(=O)[C@@H](CC(=O)O)NC(=O)C(CNC(=O)c2ccc([Si](F)(C(C)(C)C)C(C)(C)C)cc2)NC(=O)CN2CCN(CC(=O)O)CCN(CC(=O)O)CCN(CC(=O)O)CC2)C(=O)N[C@@H](Cc2ccc(O)cc2)C(=O)NC(Cc2c[nH]c3ccccc23)C(=O)N[C@@H](CCCCN)C(=O)N[C@@H]([C@@H](C)O)C(=O)N1)C(=O)O (stereo partly drawn) (natGa complex, metal not drawn) [[Ga]3] | −1.87 ± 0.07 |
| C[C@@H](O)[C@H](NC(=O)C1CSSCC(NC(=O)C(Cc2ccccc2)NC(=O)COCCOCCNC(=O)C(CC(=O)O)NC(=O)[C@@H](CC(=O)O)NC(=O)C(CNC(=O)CN2CCN(CC(=O)O)CCN(CC(=O)O)CCN(CC(=O)O)CC2)NC(=O)c2ccc([Si](F)(C(C)(C)C)C(C)(C)C)cc2)C(=O)N[C@@H](Cc2ccc(O)cc2)C(=O)NC(Cc2c[nH]c3ccccc23)C(=O)N[C@@H](CCCCN)C(=O)N[C@@H]([C@@H](C)O)C(=O)N1)C(=O)O (stereo partly drawn) (natGa complex, metal not drawn) [[Ga]4] | −2.15 ± 0.11 |
| C[C@@H](O)[C@H](NC(=O)C1CSSCC(NC(=O)C(Cc2ccccc2)NC(=O)CNC(=O)CNC(=O)[C@@H](CC(=O)O)NC(=O)C(CC(=O)O)NC(=O)[C@@H](CNC(=O)CN2CCN(CC(=O)O)CCN(CC(=O)O)CCN(CC(=O)O)CC2)NC(=O)C(CN)NC(=O)c2ccc([Si](F)(C(C)(C)C)C(C)(C)C)cc2)C(=O)N[C@@H](Cc2ccc(O)cc2)C(=O)NC(Cc2c[nH]c3ccccc23)C(=O)N[C@@H](CCCCN)C(=O)N[C@@H]([C@@H](C)O)C(=O)N1)C(=O)O (stereo partly drawn) [[Lu]19] | −1.85 ± 0.02 |
| C[C@@H](O)[C@H](NC(=O)C1CSSCC(NC(=O)C(Cc2ccccc2)NC(=O)CNC(=O)CNC(=O)[C@@H](CC(=O)O)NC(=O)C(CC(=O)O)NC(=O)[C@@H](CNC(=O)CN2CCN(CC(=O)O)CCN(CC(=O)O)CCN(CC(=O)O)CC2)NC(=O)C[N+](C)(C)Cc2ccc([Si](F)(C(C)(C)C)C(C)(C)C)cc2)C(=O)N[C@@H](Cc2ccc(O)cc2)C(=O)NC(Cc2c[nH]c3ccccc23)C(=O)N[C@@H](CCCCN)C(=O)N[C@@H]([C@@H](C)O)C(=O)N1)C(=O)O (stereo partly drawn) [[Lu]24] | −1.90 ± 0.05 |
| C[C@@H](O)[C@H](NC(=O)C1CSSCC(NC(=O)C(Cc2ccccc2)NC(=O)CNC(=O)CNC(=O)CNC(=O)C(CC(=O)O)NC(=O)[C@@H](CC(=O)O)NC(=O)C(CNC(=O)C[N+](C)(C)Cc2ccc([Si](F)(C(C)(C)C)C(C)(C)C)cc2)NC(=O)CN2CCN(CC(=O)O)CCN(CC(=O)O)CCN(CC(=O)O)CC2)C(=O)N[C@@H](Cc2ccc(O)cc2)C(=O)NC(Cc2c[nH]c3ccccc23)C(=O)N[C@@H](CCCCN)C(=O)N[C@@H]([C@@H](C)O)C(=O)N1)C(=O)O (stereo partly drawn) [[Lu]44] | −1.98 ± 0.05 |
| C[C@@H](O)[C@H](NC(=O)C1CSSCC(NC(=O)C(Cc2ccccc2)NC(=O)CNC(=O)CNC(=O)CNC(=O)C(CC(=O)O)NC(=O)[C@@H](CC(=O)O)NC(=O)C(CCCCN)NC(=O)[C@@H](CNC(=O)C[N+](C)(C)Cc2ccc([Si](F)(C(C)(C)C)C(C)(C)C)cc2)NC(=O)CN2CCN(CC(=O)O)CCN(CC(=O)O)CCN(CC(=O)O)CC2)C(=O)N[C@@H](Cc2ccc(O)cc2)C(=O)NC(Cc2c[nH]c3ccccc23)C(=O)N[C@@H](CCCCN)C(=O)N[C@@H]([C@@H](C)O)C(=O)N1)C(=O)O (stereo partly drawn) [[Lu]45] | −2.10 ± 0.08 |
| C[C@@H](O)[C@H](NC(=O)C1CSSCC(NC(=O)C(Cc2ccccc2)NC(=O)CNC(=O)CNC(=O)CNC(=O)C(CC(=O)O)NC(=O)[C@@H](CC(=O)O)NC(=O)C(CCCNC(N)=O)NC(=O)[C@@H](CNC(=O)C[N+](C)(C)Cc2ccc([Si](F)(C(C)(C)C)C(C)(C)C)cc2)NC(=O)CN2CCN(CC(=O)O)CCN(CC(=O)O)CCN(CC(=O)O)CC2)C(=O)N[C@@H](Cc2ccc(O)cc2)C(=O)NC(Cc2c[nH]c3ccccc23)C(=O)N[C@@H](CCCCN)C(=O)N[C@@H]([C@@H](C)O)C(=O)N1)C(=O)O (stereo partly drawn) [[Lu]46] | −2.12 ± 0.05 |
| C[C@@H](O)[C@H](NC(=O)C1CSSCC(NC(=O)C(Cc2ccccc2)NC(=O)CNC(=O)CNC(=O)CNC(=O)C(CC(=O)O)NC(=O)[C@@H](CC(=O)O)NC(=O)C(CCC(=O)O)NC(=O)[C@@H](CNC(=O)C[N+](C)(C)Cc2ccc([Si](F)(C(C)(C)C)C(C)(C)C)cc2)NC(=O)CN2CCN(CC(=O)O)CCN(CC(=O)O)CCN(CC(=O)O)CC2)C(=O)N[C@@H](Cc2ccc(O)cc2)C(=O)NC(Cc2c[nH]c3ccccc23)C(=O)N[C@@H](CCCCN)C(=O)N[C@@H]([C@@H](C)O)C(=O)N1)C(=O)O (stereo partly drawn) [[Lu]47] | −2.29 ± 0.03 |
| C[C@@H](O)[C@H](NC(=O)C1CSSCC(NC(=O)C(Cc2ccccc2)NC(=O)[C@@H](CC(N)=O)NC(=O)C(CC(N)=O)NC(=O)[C@@H](CC(=O)O)NC(=O)C(CC(=O)O)NC(=O)[C@@H](CNC(=O)CN2CCN(CC(=O)O)CCN(CC(=O)O)CCN(CC(=O)O)CC2)NC(=O)C[N+](C)(C)Cc2ccc([Si](F)(C(C)(C)C)C(C)(C)C)cc2)C(=O)N[C@@H](Cc2ccc(O)cc2)C(=O)NC(Cc2c[nH]c3ccccc23)C(=O)N[C@@H](CCCCN)C(=O)N[C@@H]([C@@H](C)O)C(=O)N1)C(=O)O (stereo partly drawn) [[Lu]48] | −2.19 ± 0.05 |
| C[C@@H](O)[C@H](NC(=O)C1CSSCC(NC(=O)C(Cc2ccccc2)NC(=O)[C@@H](CC(N)=O)NC(=O)C(CC(N)=O)NC(=O)CNC(=O)C(CC(=O)O)NC(=O)[C@@H](CC(=O)O)NC(=O)C(CNC(=O)CN2CCN(CC(=O)O)CCN(CC(=O)O)CCN(CC(=O)O)CC2)NC(=O)C[N+](C)(C)Cc2ccc([Si](F)(C(C)(C)C)C(C)(C)C)cc2)C(=O)N[C@@H](Cc2ccc(O)cc2)C(=O)NC(Cc2c[nH]c3ccccc23)C(=O)N[C@@H](CCCCN)C(=O)N[C@@H]([C@@H](C)O)C(=O)N1)C(=O)O (stereo partly drawn) [[Lu]49] | −2.24 ± 0.06 |

Reference: patent US20240317780A1, “RADIOPHARMACEUTICAL SOMATOSTATIN RECEPTOR LIGANDS AND PRECURSORS THEREOF” (Technische Universität München, priority 2021, published 2024)
